According to paper PMC9229919, “4-Aminoquinoline-Based Adamantanes as Potential Anticholinesterase Agents in Symptomatic Treatment of Alzheimer’s Disease” (Pharmaceutics, 2022):
Read-outs that look alike come from different tables or passages of the source.

Assays:
[1] = Ferric reducing antioxidant power (FRAP) assay; conditions: mean ± standard error of three experiments;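 also: expressed as µM Fe2+ equivalents from an FeSO4·7H2O standard curve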
In short: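 Ferric-TPTZ reduction measured by absorbance at 593 nm after 60 min at 37 °C in pH 3.6 acetate-buffered TPTZ/FeCl3 reagent, with test compounds at 10 and 100 µM. FRAP values calculated from an Fe2SO4·7H2O standard curve. Data from three independent experiments.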

purified human BChE = molecular target: T1, purified human BChE (Homo sapiens, UniProt P06276); assay: biochemical; type: biochemical
T1 construct: possibly also a gift of Dr Florian Nachon (the sentence is ambiguous)
T1 sequence (P06276 29-602): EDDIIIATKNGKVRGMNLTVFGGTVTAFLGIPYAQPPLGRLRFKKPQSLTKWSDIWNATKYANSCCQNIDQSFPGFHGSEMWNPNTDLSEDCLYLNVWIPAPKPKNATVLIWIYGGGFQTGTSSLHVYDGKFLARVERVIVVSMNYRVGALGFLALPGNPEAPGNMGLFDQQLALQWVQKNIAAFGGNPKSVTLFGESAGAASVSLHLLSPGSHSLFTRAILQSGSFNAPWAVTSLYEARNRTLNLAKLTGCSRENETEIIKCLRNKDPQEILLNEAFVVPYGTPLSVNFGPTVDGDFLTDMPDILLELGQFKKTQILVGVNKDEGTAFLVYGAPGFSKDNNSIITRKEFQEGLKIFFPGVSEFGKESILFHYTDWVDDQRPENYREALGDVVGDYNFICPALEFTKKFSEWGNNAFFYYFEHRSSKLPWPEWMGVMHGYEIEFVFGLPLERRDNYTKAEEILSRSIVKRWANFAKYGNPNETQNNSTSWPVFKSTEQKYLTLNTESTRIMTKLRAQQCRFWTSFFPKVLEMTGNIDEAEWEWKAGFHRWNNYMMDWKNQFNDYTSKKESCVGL
In short: (§1)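 Modified Ellman assay with acetylthiocholine and DTNB in 0.1 M sodium phosphate pH 7.4 (enzymes diluted with 0.1% BSA), ≤0.2% DMSO, 25 °C. At least three inhibitor concentrations per substrate level; Ki,app from Hunter–Downs equation, Ki from y-intercept and inhibition type from Ki,app vs [S].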

recombinant human AChE = molecular target: T2, recombinant human AChE (Homo sapiens, UniProt P22303); assay: biochemical; type: biochemical; conditions: for IS: IS = Ki(BChE)/Ki(AChE), IS > 1 selective to AChE
T2 construct: gift of Dr Florian Nachon (Armed Forces Biomedical Research Institute, Brétigny-sur-Orge, France)
T2 sequence (P22303 32-614): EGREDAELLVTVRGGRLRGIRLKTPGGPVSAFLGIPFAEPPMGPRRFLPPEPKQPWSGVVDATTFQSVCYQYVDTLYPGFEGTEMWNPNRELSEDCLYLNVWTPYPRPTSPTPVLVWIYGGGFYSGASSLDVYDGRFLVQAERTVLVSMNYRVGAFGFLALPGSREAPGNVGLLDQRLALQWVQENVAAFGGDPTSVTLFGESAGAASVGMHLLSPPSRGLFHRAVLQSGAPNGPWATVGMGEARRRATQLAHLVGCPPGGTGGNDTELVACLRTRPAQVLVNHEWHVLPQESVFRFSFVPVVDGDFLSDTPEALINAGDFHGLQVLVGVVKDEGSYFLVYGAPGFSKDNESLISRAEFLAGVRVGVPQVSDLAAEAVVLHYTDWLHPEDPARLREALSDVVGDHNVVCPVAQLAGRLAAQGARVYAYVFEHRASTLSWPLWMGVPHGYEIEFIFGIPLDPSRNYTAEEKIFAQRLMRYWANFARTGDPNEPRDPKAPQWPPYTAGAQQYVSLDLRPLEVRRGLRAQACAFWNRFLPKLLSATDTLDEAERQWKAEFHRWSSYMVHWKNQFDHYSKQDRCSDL
In short: as §1

[2] = Reverse-phase thin-layer chromatographic lipophilicity (RF, RM0); type: physicochemical; conditions: for RM0: intercept of RM = RM0 + bC; for b: slope of RM = RM0 + bC; for RF, Methanol/Water/Hydrochloric acid (conc.), mobile phase I: I = 90%MeOH/5%H2O/5%HCl; for RF, Dioxane/Water/Hydrochloric acid (conc.), mobile phase II: II = 80%Dioxane/15%H2O/5%HCl; for RF, Methanol/Water/Hydrochloric acid (conc.), mobile phase II: II = 85%MeOH/10%H2O/5%HCl; for RF, Acetone/Water/Hydrochloric acid (conc.), mobile phase III: III = 70%AC/25%H2O/5%HCl; for RF, Dioxane/Water/Hydrochloric acid (conc.), mobile phase III: III = 70%Dioxane/25%H2O/5%HCl; for RF, Methanol/Water/Hydrochloric acid (conc.), mobile phase III: III = 80%MeOH/15%H2O/5%HCl; for RF, Dioxane/Water/Hydrochloric acid (conc.), mobile phase IV: IV = 60%Dioxane/35%H2O/5%HCl; for RF, Acetone/Water/Hydrochloric acid (conc.), mobile phase IV: IV = 65%AC/30%H2O/5%HCl; for RF, Methanol/Water/Hydrochloric acid (conc.), mobile phase IV: IV = 75%MeOH/20%H2O/5%HCl; for RF, Acetone/Water/Hydrochloric acid (conc.), mobile phase IX: IX = 40%AC/55%H2O/5%HCl; for RF, Methanol/Water/Hydrochloric acid (conc.), mobile phase IX: IX = 50%MeOH/45%H2O/5%HCl; for RF, Dioxane/Water/Hydrochloric acid (conc.), mobile phase V: V = 50%Dioxane/45%H2O/5%HCl; for RF, Acetone/Water/Hydrochloric acid (conc.), mobile phase V: V = 60%AC/35%H2O/5%HCl; for RF, Methanol/Water/Hydrochloric acid (conc.), mobile phase V: V = 70%MeOH/25%H2O/5%HCl; for RF, Dioxane/Water/Hydrochloric acid (conc.), mobile phase VI: VI = 40%Dioxane/55%H2O/5%HCl; for RF, Acetone/Water/Hydrochloric acid (conc.), mobile phase VI: VI = 55%AC/40%H2O/5%HCl; for RF, Methanol/Water/Hydrochloric acid (conc.), mobile phase VI: VI = 65%MeOH/30%H2O/5%HCl; for RF, Acetone/Water/Hydrochloric acid (conc.), mobile phase VII: VII = 50%AC/45%H2O/5%HCl; for RF, Methanol/Water/Hydrochloric acid (conc.), mobile phase VII: VII = 60%MeOH/35%H2O/5%HCl; for RF, Acetone/Water/Hydrochloric acid (conc.), mobile phase VIII: VIII = 45%AC/50%H2O/5%HCl; for RF, Methanol/Water/Hydrochloric acid (conc.), mobile phase VIII: VIII = 55%MeOH/40%H2O/5%HCl
In short: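 Lipophilicity from RP-TLC retention at 22±2 °C over a 4.5 cm development distance. Eluents: organic modifier (methanol, acetone or dioxane), water and hydrochloric acid, methanol stepped by 10%. RM0 obtained from RF.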

[3] = ± standard error, 25 °C, ATCh substrate, read-out: Ki BChE
[4] = ± standard error, 25 °C, ATCh substrate, read-out: Ki AChE
[5] = Acetone/Water/Hydrochloric acid (conc.)
[6] = Dioxane/Water/Hydrochloric acid (conc.)
[7] = Methanol/Water/Hydrochloric acid (conc.)
[8] = log (Ki/µM AChE), read-out: Y Measured 1 log(ki)Ache (converted)

Row | Structure (SMILES) | FRAP ([1]; 10 µM compound) [µM] | FRAP ([1]; 100 µM compound) [µM] | Ki (recombinant human AChE; [4]) [µM] | RM0 [2, 5] | b [2, 5] | RM0 [2, 6] | b [2, 6] | RM0 [2, 7] | b [2, 7] | RF, Methanol/Water/Hydrochloric acid (conc.), mobile phase I ([2]; RP-18 silica) | RF, Dioxane/Water/Hydrochloric acid (conc.), mobile phase II ([2]; RP-18 silica) | RF, Methanol/Water/Hydrochloric acid (conc.), mobile phase II ([2]; RP-18 silica) | RF, Acetone/Water/Hydrochloric acid (conc.), mobile phase III ([2]; RP-18 silica) | RF, Dioxane/Water/Hydrochloric acid (conc.), mobile phase III ([2]; RP-18 silica) | RF, Methanol/Water/Hydrochloric acid (conc.), mobile phase III ([2]; RP-18 silica) | RF, Dioxane/Water/Hydrochloric acid (conc.), mobile phase IV ([2]; RP-18 silica) | RF, Acetone/Water/Hydrochloric acid (conc.), mobile phase IV ([2]; RP-18 silica) | RF, Methanol/Water/Hydrochloric acid (conc.), mobile phase IV ([2]; RP-18 silica) | RF, Acetone/Water/Hydrochloric acid (conc.), mobile phase IX ([2]; RP-18 silica) | RF, Methanol/Water/Hydrochloric acid (conc.), mobile phase IX ([2]; RP-18 silica) | other results
1 | Clc1ccc2c(NCCCCCN(CCC34CC5CC(CC(C5)C3)C4)CCC34CC5CC(CC(C5)C3)C4)ccnc2c1 [Compound 11] | 5.3 ± 1.4 | 23 ± 4 | 0.33 ± 0.01 | 3.759 | 4.955 | 2.01 | 2.862 | 5.504 | 5.94 | 0.43 | 0.64 | 0.31 | 0.32 | 0.58 | 0.09 | 0.47 | 0.27 | 0.09 | 0 | 0 | Ki (purified human BChE; [3]): 0.82 ± 0.04 µM; IS (recombinant human AChE): 2.5; RF, Acetone/Water/Hydrochloric acid (conc.), mobile phase I ([2]; RP-18 silica, I = 80%AC/15%H2O/5%HCl): 0.58; RF, Dioxane/Water/Hydrochloric acid (conc.), mobile phase I ([2]; RP-18 silica, I = 90%Dioxane/5%H2O/5%HCl): 0.74; RF, Acetone/Water/Hydrochloric acid (conc.), mobile phase II ([2]; RP-18 silica, II = 75%AC/20%H2O/5%HCl): 0.52; RF, Dioxane/Water/Hydrochloric acid (conc.), mobile phase V ([2]; RP-18 silica): 0.13; RF, Acetone/Water/Hydrochloric acid (conc.), mobile phase V ([2]; RP-18 silica): 0.12; RF, Methanol/Water/Hydrochloric acid (conc.), mobile phase V ([2]; RP-18 silica): 0.05; RF, Dioxane/Water/Hydrochloric acid (conc.), mobile phase VI ([2]; RP-18 silica): 0; RF, Acetone/Water/Hydrochloric acid (conc.), mobile phase VI ([2]; RP-18 silica): 0.08; RF, Methanol/Water/Hydrochloric acid (conc.), mobile phase VI ([2]; RP-18 silica): 0.01; RF, Acetone/Water/Hydrochloric acid (conc.), mobile phase VII ([2]; RP-18 silica): 0; RF, Methanol/Water/Hydrochloric acid (conc.), mobile phase VII ([2]; RP-18 silica): 0; RF, Acetone/Water/Hydrochloric acid (conc.), mobile phase VIII ([2]; RP-18 silica): 0; RF, Methanol/Water/Hydrochloric acid (conc.), mobile phase VIII ([2]; RP-18 silica): 0
2 | CC(CCNCC12CC3CC(CC(C3)C1)C2)Nc1ccnc2cc(Cl)ccc12 (centres unmarked) [Compound 12] | 24.2 ± 0.0 | 37 ± 7 | 0.56 ± 0.02 | 1.835 | 3.007 | 0.75 | 1.647 | 2.4121 | 3.174 | 0.71 | 0.75 | 0.66 | 0.62 | 0.72 | 0.53 | 0.72 | 0.58 | 0.5 | 0.15 | 0.1 | Ki (purified human BChE; Ki BChE, ± standard error, 25 °C, ATCh substrate): 1.2 ± 0.1 µM; IS (recombinant human AChE): 2.1; Ki (recombinant human AChE; [8]): 0.56 µM; RF, Dioxane/Water/Hydrochloric acid (conc.), mobile phase V ([2]; RP-18 silica): 0.54; RF, Acetone/Water/Hydrochloric acid (conc.), mobile phase V ([2]; RP-18 silica): 0.48; RF, Methanol/Water/Hydrochloric acid (conc.), mobile phase V ([2]; RP-18 silica): 0.44; RF, Dioxane/Water/Hydrochloric acid (conc.), mobile phase VI ([2]; RP-18 silica): 0.4; RF, Acetone/Water/Hydrochloric acid (conc.), mobile phase VI ([2]; RP-18 silica): 0.41; RF, Methanol/Water/Hydrochloric acid (conc.), mobile phase VI ([2]; RP-18 silica): 0.36; RF, Acetone/Water/Hydrochloric acid (conc.), mobile phase VII ([2]; RP-18 silica): 0.34; RF, Methanol/Water/Hydrochloric acid (conc.), mobile phase VII ([2]; RP-18 silica): 0.25; RF, Acetone/Water/Hydrochloric acid (conc.), mobile phase VIII ([2]; RP-18 silica): 0.29; RF, Methanol/Water/Hydrochloric acid (conc.), mobile phase VIII ([2]; RP-18 silica): 0.18
3 | CC(CCNCC12CC3CC(CC(C3)C1)C2)Nc1ccnc2cc(C(F)(F)F)ccc12 (centres unmarked) [Compound 13] | 19 ± 7 | 64 ± 5 | 0.91 ± 0.05 | 2.073 | 3.206 | 0.9361 | 1.847 | 2.626 | 3.42 | 0.72 | 0.73 | 0.66 | 0.56 | 0.7 | 0.5 | 0.7 | 0.52 | 0.49 | 0.1 | 0.09 | Ki (purified human BChE; logarithm of Ki in µM, BChE, dependent variable of the QSAR model, read-out: Y Measured 2 log(ki)Bche, log (Ki/µM BChE) (converted)): 1.4 µM; Ki (purified human BChE; [3]): 1.8 ± 0.3 µM; Ki (recombinant human AChE; [8]): 0.91 µM; RF, Dioxane/Water/Hydrochloric acid (conc.), mobile phase V ([2]; RP-18 silica): 0.5; RF, Acetone/Water/Hydrochloric acid (conc.), mobile phase V ([2]; RP-18 silica): 0.4; RF, Methanol/Water/Hydrochloric acid (conc.), mobile phase V ([2]; RP-18 silica): 0.42; RF, Dioxane/Water/Hydrochloric acid (conc.), mobile phase VI ([2]; RP-18 silica): 0.33; RF, Acetone/Water/Hydrochloric acid (conc.), mobile phase VI ([2]; RP-18 silica): 0.34; RF, Methanol/Water/Hydrochloric acid (conc.), mobile phase VI ([2]; RP-18 silica): 0.34; RF, Acetone/Water/Hydrochloric acid (conc.), mobile phase VII ([2]; RP-18 silica): 0.3; RF, Methanol/Water/Hydrochloric acid (conc.), mobile phase VII ([2]; RP-18 silica): 0.22; RF, Acetone/Water/Hydrochloric acid (conc.), mobile phase VIII ([2]; RP-18 silica): 0.23; RF, Methanol/Water/Hydrochloric acid (conc.), mobile phase VIII ([2]; RP-18 silica): 0.14
